# Laboratory results reported in paper PMC9549282, “Transcriptome analysis of megalurothrips usitatus (Bagnall) identifies olfactory genes with ligands binding characteristics of MusiOBP1 and MusiCSP1” (Frontiers in Physiology, 2022).
# Target: T1, MusiCSP1
# T1 construct: pET32a(+) BamHI/HindIII fusion (about 31 kDa) in E. coli BL21(DE3), Ni-NTA, His-tag fusion cut off with enterokinase
# Experiment: fluorescent probe titration, Scatchard
# Type: binding, Megalurothrips usitatus
# Conditions: excitation 337 nm; labelled compound (fluorescent probe)
row,SMILES,Kd [µM]
1,c1ccc(Nc2cccc3ccccc23)cc1 [1-NPN],8.36

# Target: T1, MusiCSP1
# Experiment: 1-NPN fluorescence displacement
# Type: binding, Megalurothrips usitatus
# Conditions: 2 μM protein, 2 μM 1-NPN; ligand 2-16 μM; competitive with 1-NPN
# Description: 1-NPN fluorescence displacement on MusiCSP1
row,SMILES,Ki [µM]
1,Cc1ccccc1C [O-Xylene],31
2,COc1ccc(C=O)cc1 [P-Anisaldehyde],42.8
3,C=C1CC/C=C(\C)CC[C@@H]2[C@@H]1CC2(C)C [β-Caryophyllene],121

# More lines, now with the values ahead:
row,Ki [µM],SMILES
1,38.6,O=CCCc1ccccc1 [3-Benzene propanal]
2,59.6,CCCCCC(=O)CC [3-Octanone]
3,25.4,Cc1occc(=O)c1O [3-hydroxy-2-Methyl-4-pvrone]
4,36.5,CC(C)=CCC/C(C)=C/CO [Geraniol]
5,80,CC(C)=CCC/C(C)=C\CO [Nerol]
6,38.6,CC(C)=CCCC(C)CCO (stereo not drawn) [β-citronellol]
